In patent US20260176284A1, “Compounds with Anti-KRAS Mutated Tumor Activity” (Trasveda Ltd., priority 2022, published 2026):

Assays:
[1] = system: KRAS-G12D mutated human colon carcinoma cells GP2d; test: Antitumor effect, subcutaneous xenograft of KRAS-G12D mutated human colon carcinoma cells GP2d; format: in vivo; conditions: BALB/c nude mice, 10 mg/kg, gavage, twice a day; for TGI (%): Day 21
Procedure: GP2d cells were purchased from Nanjing Kebai Biotechnology Co., Ltd. BALB/c nude mice, female, were purchased from Jiangsu GemPharmatech LLC. GP2d cells were cultured in culture medium containing DMEM and 10% FBS. The cells in the logarithmic growth phase were collected and resuspended in PBS to an appropriate concentration for subcutaneous tumor inoculation in mice. The experimental mice were subcutaneously inoculated on the right posterior side of the back. The inoculation dose of GP2d cells was 1×10^7 cells per mouse, and the cells were resuspended in a 1:1 mixture of PBS and Matrigel (the inoculation volume was 0.1 mL). When the average tumor volume grew to 150 mm^3, the mice were randomly grouped for administration according to the tumor size and body weight. Administration was started immediately after grouping, and the day of administration was regarded as day 0. The administration was carried out twice a day by gavage, at a dose of 10 mg/kg or a solvent control (0.5% Tween 80+99.5% of (0.5% MC (400 cp))). During the experiment, the body weight of the mice and the size of the tumors were measured twice a week.
The formula for calculating the tumor size: Tumor volume (mm^3)=0.5×(long diameter of tumor×(short diameter of tumor)^2).
Relative tumor inhibition rate TGI (%): TGI %=[1−(average tumor volume at the end of administration of the treatment group−average tumor volume at the beginning of administration of the treatment group)/(average tumor volume at the end of administration of the vehicle control group −average tumor volume at the beginning of administration of the vehicle control group)]×100%.

[2] = system: KRAS G12D mutated AGS human gastric adenocarcinoma cells; test: Proliferation inhibition of KRAS G12D mutant AGS cells, another experiment with similar protocol (includes MRTX1133); format: cell-based; conditions: Homo sapiens
Procedure: In another experiment, using a protocol similar to the one described above, the inhibitory activity of some representative compounds of the present invention against KRAS G12D mutated AGS human gastric adenocarcinoma cells was determined.
The synthesis of compound MRTX1133 was performed according to the method described in J. Med. Chem. 2022, 65, 4, 3123-3133.

[3] = system: human pancreatic cancer cells HPAC (carrying KRas G12D mutant protein); test: In vivo pharmacodynamics, subcutaneous xenograft of human pancreatic cancer cells HPAC; conditions: NOD/SCID mice, 50 mpk, PO; for Tumor volume (mm3) (Day 20): BID × 21; for TGI (%): BID × 21, Day 20
Procedure: The following materials were used in this experiment: NOD/SCID mice, 6-8 weeks old, female, Jiangsu Ji Cai Yao Kang Biotechnology Co., Ltd.; HPAC cells (carrying KRas G12D mutant protein, ATCC); Captisol (Wuhan Fengyao Tonghui Chemical Products Co., Ltd., Cas #182410-00-0); Sodium acetate (aladdin); MC (sigma, 9004-67-5).
The experiment was carried out as follows: Female NOD/SCID mice aged 6-8 weeks were subcutaneously inoculated with 1-10^7 HPAC cells on the right posterior side of the back, with an inoculation volume of 0.1 mL. When the tumors grew to an average volume of 150 mm^3, the mice were randomly grouped for administration according to the tumor size and body weight. The day of administration was regarded as day 0. The administration was carried out once a day. The test compound was administered by tail vein injection or gavage, with 5 mice in each group at a dose of 10 mg/kg. The control group was administered with an equal volume of the solvent control by tail vein injection or gavage.
During the experiment, the tumor volume and body weight were measured twice a week. The formula for calculating the tumor volume was: Tumor volume (mm^3)=0.5×(tumor major axis×tumor minor axis^2). The average tumor inhibition rate TGI %=[(average tumor volume of the control group−average initial tumor volume of the control group)−(average tumor volume of the administration group−average initial tumor volume of the administration group)]/(average tumor volume of the control group−average initial tumor volume of the control group).

[4] = Mouse pharmacokinetics (IV and PO); format: in vivo; conditions: 10 mg/kg, male CD-1 mice, PO (gavage), 1 mg/mL at 10 mL/kg, plasma
Procedure: The pharmacokinetic properties of the compounds of the present invention were evaluated through a mouse pharmacokinetic experiment.
Male CD-1 mice, aged 6-8 weeks old, were purchased from Zhejiang Vital River Laboratory Animal Co., Ltd.
IV administration group: The compound was formulated into a sodium acetate buffer solution (10 mM sodium acetate solution, adjusted to pH 4.0 with acetic acid) containing 20% Captisol (sulfobutyl β-cyclodextrin) so that the final concentration of each compound was 0.6 mg/mL. The drug formulation was injected into the tail vein of CD-1 mice at an injection volume of 5 mL/kg. After administration, blood samples were collected from the submandibular vein or by other appropriate methods at 5 min, 15 min, 30 min, 1 h, 2 h, 4 h, 6 h, 8 h, and 24 h. The blood samples were centrifuged at a low temperature for 6 minutes, and the plasma was collected and stored at −80° C. for testing. The PO administration group formulated the compound into a solvent of 0.5% Tween 80+99.5% (0.5% MC (400 cp)) or 5% DMSO+95% (0.5% MC (400 cp)) so that the final concentration of each compound was 1 mg/mL. The drug formulation was administered to CD-1 mice by gavage at a volume of 10 mL/kg. After administration, blood samples were collected from the submandibular vein or by other appropriate methods at 15 min, 30 min, 1 h, 2 h, 4 h, 6 h, 8 h, and 24 h. The blood samples were centrifuged at a low temperature for 6 minutes, and the plasma was collected and stored at −80° C. for testing.
10 μL of the plasma sample was taken, and 200 μL of methanol containing an internal standard was added as a precipitating agent to precipitate plasma proteins and extract the compounds to be tested in the plasma. After centrifugation at a low temperature, 10 μL of the supernatant was injected, and the drug blood concentration was analyzed by LC-MS/MS. The pharmacokinetic parameters were calculated using Winnonlin based on the drug concentration data at different time points.

Row | Structure (SMILES) | Tumor volume (mm3) (Day 21) [1] | TGI (%) [1] [%] | IC50 [2] [nM] | Tumor volume (mm3) (Day 20) [3] | TGI (%) [3] [%] | AUC(0-inf) [4] [ng·h/mL] | AUC(0-t) [4] [ng·h/mL] | half-life [4] [min]
1 | [2H]C([2H])([2H])N1CC[C@H](C(F)F)[C@](C)(C([2H])([2H])Oc2nc(N3CC4CCC(C3)N4)c3cc(Cl)c(-c4cccc5sc(N)c(C#N)c45)c(F)c3n2)C1 (single isomer, unassigned) [Example 315-1] | 325 | 80 |  |  |  |  |  | 
2 | C#Cc1c(F)ccc2cc(O)cc(-c3nc(OC)c4c(N5C[C@H]6CC[C@@H](C5)N6)nc(OC[C@]5(C)CN(C)CC[C@@H]5C(F)F)nc4c3F)c12 [Example 261, 4-(4-((1R,5S)-3,8-diazabicyclo[3.2.1]octan-3-yl)-2-(((3S,4S)-4-(difluoromethyl)-1,3-dimethylpiperidin-3-yl)methoxy)-8-fluoro-5-methoxypyrido[4,3-d]pyrimidin-7-yl)-5-ethynyl-6-fluoronaphthalen-2-ol] |  |  | 2 | 117 | 105 |  |  | 
3 | C#Cc1c(F)ccc2cc(O)cc(-c3nc(OC)c4c(N5C[C@H]6CC[C@@H](C5)N6)nc(OC[C@]5(C)CN(C)CC/C5=C\F)nc4c3F)c12 [Example 265, 4-(4-((1R,5S)-3,8-diazabicyclo[3.2.1]octan-3-yl)-8-fluoro-2-(((S,E)-4-(fluoromethylene)-1,3-dimethylpiperidin-3-yl)methoxy)-5-methoxypyrido[4,3-d]pyrimidin-7-yl)-5-ethynyl-6-fluoronaphthalen-2-ol] |  |  | 2 | 113 | 106 |  |  | 
4 | C#Cc1c(F)ccc2cc(O)cc(-c3c(F)cc4c(N5CC6CCC(C5)N6)nc(OC[C@]5(C)CN(C)CC[C@@H]5C(F)F)nc4c3F)c12 (atropisomer, axis not shown; (Ra)) [Example 46-3, (Ra)-4-(4-((1R,5S)-3,8-diazabicyclo[3.2.1]octan-3-yl)-2-(((3S,4S)-4-(difluoromethyl)-1,3-dimethylpiperidin-3-yl)methoxy)-6,8-difluoroquinazolin-7-yl)-5-ethynyl-6-fluoronaphthalen-2-ol] |  |  | 7 | 135 | 102 | 414 | 384 | 645
5 | CN1CC[C@H](C(F)F)[C@](C)(COc2nc(N3CC4CCC(C3)N4)c3cc(Cl)c(-c4c(F)ccc5sc(N)c(C#N)c45)c(F)c3n2)C1 (single isomer, unassigned) [Example 325-1] | 228 | 91 | 2 |  |  |  |  | 
6 | C#Cc1c(F)ccc2cc(O)cc(-c3ncc4c(N5C[C@H]6CC[C@@H](C5)N6)nc(OC[C@]5(C)CN(C)CC[C@@H]5C(F)F)nc4c3F)c12 [Example 105, 4-(4-((1R,5S)-3,8-diazabicyclo[3.2.1]octan-3-yl)-2-(((3S,4S)-4-(difluoromethyl)-1,3-dimethylpiperidin-3-yl)methoxy)-8-fluoropyrido[4,3-d]pyrimidin-7-yl)-5-ethynyl-6-fluoronaphthalen-2-ol] |  |  | 6 | 122 | 104 |  |  | 
7 | [2H]C([2H])([2H])N1CC/C(=C\F)[C@](C)(C([2H])([2H])Oc2nc(N3C[C@H]4CC[C@@H](C3)N4)c3cnc(-c4cc(O)cc5ccc(F)c(C#C)c45)c(F)c3n2)C1 [Example 304, 4-(4-((1R,5S)-3,8-diazabicyclo[3.2.1]octan-3-yl)-8-fluoro-2-(((S,E)-4-(fluoromethylene)-3-methyl-1-(methyl-d3)piperidin-3-yl)methoxy-d2)pyrido[4,3-d]pyrimidin-7-yl)-5-ethynyl-6-fluoronaphthalen-2-ol] |  |  | 2 |  |  | 1500 | 1420 | 524
8 | [2H]C([2H])([2H])N1CC/C(=C\F)[C@](C)(COc2nc(N3C[C@H]4CC[C@@H](C3)N4)c3cnc(-c4cc(O)cc5ccc(F)c(C#C)c45)c(F)c3n2)C1 [Example 306, 4-(4-((1R,5S)-3,8-diazabicyclo[3.2.1]octan-3-yl)-8-fluoro-2-(((S,E)-4-(fluoromethylene)-3-methyl-1-(methyl-d3)piperidin-3-yl)methoxy)pyrido[4,3-d]pyrimidin-7-yl)-5-ethynyl-6-fluoronaphthalen-2-ol] |  |  | 5 |  |  | 801 | 759 | 430
9 | CN1CC/C(=C\F)[C@](C)(COc2nc(N3CC4CCC(C3)N4)c3cc(Cl)c(-c4cccc5sc(N)c(C#N)c45)c(F)c3n2)C1 (single isomer, unassigned) [Example 313-1] | 256 | 88 |  |  |  |  |  | 
10 | C#Cc1c(F)ccc2cc(O)cc(-c3nc(C#C)c4c(N5CC6CCC(C5)N6)nc(OC[C@]5(C)CN(C)CC/C5=C\F)nc4c3F)c12 [Example 332] | 419 | 70 | 1 |  |  |  |  | 
11 | C#Cc1c(F)ccc2cc(O)cc(-c3c(F)cc4c(N5CC6CCC(C5)N6)nc(OC[C@]5(C)CN(C)CC/C5=C\F)nc4c3F)c12 (atropisomer, axis not shown; (Ra)) [Example 77, (Ra)-4-(4-((1R,5S)-3,8-diazabicyclo[3.2.1]octan-3-yl)-6,8-difluoro-2-(((S,E) 4-(fluoromethylene)-1,3-dimethylpiperidin-3-yl)methoxy)quinazolin-7-yl)-5-ethynyl-6-fluoronaphthalen-2-ol] |  |  | 4 | 255 | 83 |  |  | 
